Source: the NIST ThermoML archive (doi:10.1016/j.jct.2015.08.014)

Test: xn = mol fraction of the nth substance listed
Conditions: 100 kPa, Liquid; for electrical conductivity: Alternating current cell with electrodes; for mass density: Vibrating tube method; for viscosity: Capillary tube (Ostwald / Ubbelohde) method

CCCC[N+]1(C)CCCC1.N#CN=C=[N-] [1-butyl-1-methylpyrrolidinium dicyanamide] + O=C1CCCO1
electrical conductivity [S/m]
Conditions	Frequency=0.0005 MHz	Frequency=0.001 MHz	Frequency=0.0015 MHz	Frequency=0.002 MHz	Frequency=0.0025 MHz	Frequency=0.003 MHz	Frequency=0.00347222 MHz	Frequency=0.01 MHz
298.15 K, x1 = 0.1449	–	–	–	–	–	–	–	2.51
298.15 K, x1 = 0.1859	–	–	–	–	–	–	–	2.68
298.15 K, x1 = 0.2493	–	–	–	–	–	–	–	2.614
298.15 K, x1 = 0.3029	–	–	–	–	–	–	–	2.54
298.15 K, x1 = 0.3845	–	–	–	–	–	–	–	2.36
298.15 K, x1 = 0.4985	–	–	–	–	–	–	–	2.08
298.15 K, x1 = 0.6954	–	–	–	–	–	–	–	1.68
298.15 K, x1 = 0.9013	–	–	–	–	–	–	–	1.39
298.15 K, x1 = 1	–	–	–	–	–	–	–	1.318
303.15 K, x1 = 0.0463	1.56	1.57	1.57	1.57	1.57	1.58	1.58	–
303.15 K, x1 = 0.0987	2.36	2.37	2.37	2.38	2.38	2.38	2.38	–
303.15 K, x1 = 0.1449	2.71	2.71	2.71	2.71	2.71	2.71	2.71	–
303.15 K, x1 = 0.1859	2.87	2.88	2.89	2.89	2.89	2.89	2.9	–
303.15 K, x1 = 0.2493	2.85	2.85	2.85	2.85	2.85	2.85	2.85	–
303.15 K, x1 = 0.3029	2.78	2.78	2.78	2.79	2.79	2.79	2.79	–
303.15 K, x1 = 0.3845	2.608	2.612	2.614	2.616	2.616	2.617	2.617	–
303.15 K, x1 = 0.4985	2.33	2.33	2.33	2.33	2.33	2.33	–	–
303.15 K, x1 = 0.6954	1.908	1.909	1.91	1.911	1.911	1.911	–	–
303.15 K, x1 = 0.9013	1.602	1.604	1.605	1.606	1.606	1.607	–	–
303.15 K, x1 = 1	1.525	1.526	1.526	1.527	1.527	1.527	–	–

Conditions	electrical conductivity, 303.15 K [S/m]	mass density, 298.15 K [kg/m3]	viscosity, 303.15 K [mPa·s]
x1 = 0.0463	1.58	–	–
x1 = 0.0987	2.38	1103.29	2.56
x1 = 0.1449	2.71	–	–
x1 = 0.1859	2.9	1087.38	3.64
x1 = 0.2493	2.86	–	–
x1 = 0.3029	2.79	1069.77	5.53
x1 = 0.3845	2.619	–	–
x1 = 0.4985	2.33	1047.53	9.91
x1 = 0.6954	1.912	1031.19	16.03
x1 = 0.9013	1.608	1018.43	23.88
x1 = 1	1.527	1013.45	28.53
